# Measured values from US5919761A, “Peptides for heparin and low molecular weight heparin anticoagulation reversal” (The Board of Regents of the University of Michigan, priority 1995, dated 1999).
# Peptide text beside a SMILES is read from it.
# Experiments:
# LMWH (LHN-1, Logiparin) [1] = assay: Percent reversal of low molecular weight heparin anticoagulation, in vivo canine study, coagulation tests; set-up: species or system dogs; conditions: for aPTT reversal: Logiparin
# Description: Anticoagulation reversal was assessed by a number of standard coagulation tests performed upon samples of venous blood: activated clotting time (ACT), heparin concentration by assay for FXa inhibitory activity (FXa), thrombin clotting time (TCT), and heparin concentration by assay for FIIa inhibitory activity (FIIa). Measurements were made 3 minutes prior to heparin reversal (baseline) and 3 minutes, 10 minutes, and 30 minutes post-administration of the heparin reversal agent. […] The coagulation data were corrected for naturally occurring metabolism.
# [2] = Platelet and white blood cell count after LMWH reversal, canine study; assay type: in vivo; conditions: dogs, Logiparin
# Description: In addition to the measurements reported on Table 6, studies were conducted to measure the activated partial thromboplastin time (aPTT), platelet count, and white blood cell count. […] However, the [+18B] variant produced greater aPTT reversal than protamine at the 3, 10 and 30 minute measurements (64%, 95%, and 93%, respectively, as compared to 50%, 83%, and 78%, respectively, for protamine).
# LMWH (LHN-1, Logiparin) [3] = assay: Percent reversal of LMWH anticoagulation, agents administered at different rates, canine study; assay type: in vivo, dogs
# Description: Anticoagulation reversal was assessed by a number of standard coagulation tests performed upon samples of venous blood in the manner described hereinabove. Measurements were made 3 minutes prior to heparin reversal (baseline) and 3 minutes, 10 minutes, and 30 minutes post-administration of the heparin reversal agent.
# [4] = Platelet count, leukocyte count and bleeding time after LMWH reversal at different rates, canine study; assay type: in vivo, dogs; conditions: dogs, Logiparin; administered over 10 sec
# Description: (§1) The anticoagulation-reversing agents were administered rapidly over 10 seconds to maximize hemodynamic effects or more slowly over a 3 minute interval. Changes in LMWH anticoagulation occurring from metabolism alone were determined in a separate group of dogs not given any reversal agent.
# [5] = Hemodynamic studies and total toxicity score after LMWH reversal, canine study; conditions: dogs
# Description: (§2) Hemodynamic studies were conducted by measuring mean arterial pressure (MAP) in mm Mercury, maximum percent changes in cardiac output (CO) and systemic oxygen consumption (VO2), and heart rate (HR) in beats per minute. Measurements and calculations were made at baseline, before LMWH administration, 3 minutes before reversal, every 30 seconds for 5 minutes after reversal, and at 10, 20, and 30 minutes after reversal.
# Total toxicity scores (TTS) were developed that reflected maximum declines in each of four parameters (MAP, CO, VO2 and HR) over the first 5 minutes after reversal. The maximum changes occurring in an individual dog over the first 5 minutes were divided by the standard deviation derived from the entire group of tested animals and the four scores were added, resulting in a TTS for each individual dog. The TTS values for each dog were then summed to obtain an average TTS and SD for each peptide studied. The more negative the value of TTS, the more toxic the compound.
# [6] = Hemodynamic studies and total toxicity score after LMWH reversal at different rates, canine study; conditions: dogs, Logiparin; administered over 10 sec
# Description: as §1, §2
# TTS were developed that reflected maximum declines in each of four parameters (MAP, CO, VO2 and HR) over the first 5 minutes after reversal in the same manner as described hereinabove.
# [7] = administered over 10 sec, 3 min
# [8] = administered over 10 sec, 10 min
# [9] = administered over 10 sec, 30 min
# [10] = Logiparin, maximum percent change
structure (smiles),measurement,setting,value
"CC(=O)N1CCC[C@H]1C(=O)N[C@@H](C)C(=O)N[C@@H](CCCCN)C(=O)N[C@@H](CCCCN)C(=O)N[C@@H](C)C(=O)N[C@@H](C)C(=O)N[C@@H](CCCCN)C(=O)N[C@@H](CCCCN)C(=O)N[C@@H](C)C(=O)N[C@@H](CCCCN)C(=O)N[C@@H](CCCCN)C(=O)N[C@@H](C)C(=O)N[C@@H](C)C(=O)N[C@@H](CCCCN)C(=O)N[C@@H](CCCCN)C(=O)N[C@@H](C)C(=O)N[C@@H](CCCCN)C(=O)N[C@@H](CCCCN)C(=O)N[C@@H](C)C(=O)N[C@@H](C)C(=O)N[C@@H](CCCCN)C(=O)N[C@@H](CCCCN)C(=O)N[C@@H](C)C(=O)N[C@@H](CCCCN)C(=O)N[C@@H](CCCCN)C(=O)N[C@@H](C)C(=O)N[C@@H](C)C(=O)N[C@@H](CCCCN)C(=O)N[C@@H](CCCCN)C(=O)N[C@@H](C)C(=O)N[C@@H](CCCCN)C(=O)N[C@@H](CCCCN)C(N)=O [[+18B], acetyl-PA(K2 A2 K2 A)4 K2 -amide] (Ac-PAKKAAKKAKKAAKKAKKAAKKAKKAAKKAKK-NH2)",aPTT reversal,"LMWH (LHN-1, Logiparin) [1]; dogs, 3 minute measurement",64%
same,aPTT reversal,"LMWH (LHN-1, Logiparin) [1]; dogs, 10 minute measurement",95%
same,aPTT reversal,"LMWH (LHN-1, Logiparin) [1]; dogs, 30 minute measurement",93%
same,"Percent reversal of LMWH anticoagulation, ACT","LMWH (LHN-1, Logiparin) [1]; dogs, Logiparin 150 IU/kg, agent 1.5 mg/kg IV after 30 min, 3 min post-administration, corrected for metabolism",87%
same,"Percent reversal of LMWH anticoagulation, FNa","LMWH (LHN-1, Logiparin) [1]; same study, 3 min",96%
same,"Percent reversal of LMWH anticoagulation, FXa","LMWH (LHN-1, Logiparin) [1]; same study, 3 min",64%
same,"Percent reversal of LMWH anticoagulation, TCT","LMWH (LHN-1, Logiparin) [1]; same study, 3 min",99%
same,"Percent reversal of LMWH anticoagulation, ACT","LMWH (LHN-1, Logiparin) [1]; same study, 10 min",93%
same,"Percent reversal of LMWH anticoagulation, FNa","LMWH (LHN-1, Logiparin) [1]; same study, 10 min",72%
same,"Percent reversal of LMWH anticoagulation, FXa","LMWH (LHN-1, Logiparin) [1]; same study, 10 min",34%
same,"Percent reversal of LMWH anticoagulation, TCT","LMWH (LHN-1, Logiparin) [1]; same study, 10 min",95%
same,"Percent reversal of LMWH anticoagulation, ACT","LMWH (LHN-1, Logiparin) [1]; same study, 30 min",102%
same,"Percent reversal of LMWH anticoagulation, FNa","LMWH (LHN-1, Logiparin) [1]; same study, 30 min",74%
same,"Percent reversal of LMWH anticoagulation, FXa","LMWH (LHN-1, Logiparin) [1]; same study, 30 min",52%
same,"Percent reversal of LMWH anticoagulation, TCT","LMWH (LHN-1, Logiparin) [1]; same study, 30 min",96%
same,decline in white blood cell count,[2],greatest
same,mean decline in platelet count,[2],-56%
same,"Percent reversal of LMWH anticoagulation, FNa","LMWH (LHN-1, Logiparin) [3]; [7]",95%
same,"Percent reversal of LMWH anticoagulation, FXa","LMWH (LHN-1, Logiparin) [3]; [7]",64%
same,"Percent reversal of LMWH anticoagulation, TCT","LMWH (LHN-1, Logiparin) [3]; [7]",99%
same,"Percent reversal of LMWH anticoagulation, ACT","LMWH (LHN-1, Logiparin) [3]; [8]",87%
same,"Percent reversal of LMWH anticoagulation, FNa","LMWH (LHN-1, Logiparin) [3]; [8]",72%
same,"Percent reversal of LMWH anticoagulation, FXa","LMWH (LHN-1, Logiparin) [3]; [8]",34%
same,"Percent reversal of LMWH anticoagulation, TCT","LMWH (LHN-1, Logiparin) [3]; [8]",95%
same,"Percent reversal of LMWH anticoagulation, ACT","LMWH (LHN-1, Logiparin) [3]; [9]",98%
same,"Percent reversal of LMWH anticoagulation, FNa","LMWH (LHN-1, Logiparin) [3]; [9]",74%
same,"Percent reversal of LMWH anticoagulation, FXa","LMWH (LHN-1, Logiparin) [3]; [9]",52%
same,"Percent reversal of LMWH anticoagulation, TCT","LMWH (LHN-1, Logiparin) [3]; [9]",100%
same,"Percent reversal of LMWH anticoagulation, ACT","LMWH (LHN-1, Logiparin) [3]; dogs, Logiparin, agent administered over 10 sec, 3 min post-administration",87%
same,Maximal decline in leukocyte count,[4],-21%
same,Maximal thrombocytopenia,[4],-56%
same,Total Toxicity Score,"[5]; LMWH, 50% less dose (1:2 peptide to LMWH)",about -1.62
same,maximum mean increase in pulmonary artery diastolic (PAD) pressure,[5]; Logiparin,no increase
same,maximum mean increase in pulmonary artery systolic (PAS) pressure,[5]; Logiparin,no increase
same,ΔHR,[5]; Logiparin,-9 beats per minute
same,ΔMAP,[5]; Logiparin,-10 mm Mercury
same,Total Toxicity Score,"[5]; Logiparin, first 5 minutes after reversal, 1:1 peptide to LMWH",-4.1 ± 1.6
same,ΔCO,[5]; [10],-18%
same,ΔVO2,[5]; [10],-12%
same,Total Toxicity Score,[6],-3.1 ± 1.5
same,ΔCO,[6],-18%
same,ΔHr,[6],-9 beats per minute
same,ΔMAP,[6],-10 mm Mercury
same,ΔVO2,[6],-12%
